Test results taken from article PMC8447900 (Chemical Science, 2021).

Tested on: hENT1
Assay type: cell-based, human
Details: PK15-ENT1 cells

SMILES	effect of AZD8055 on activity of isomer 1a (AZD8055 (5 μM) combined with isomer 1a)	effect of rapamycin on potency of isomer 1a (rapamycin (5 μM) combined with isomer 1a)
COc1ccc(-c2ccc3c(N4CCOC[C@@H]4C)nc(N4CCOC[C@@H]4C)nc3n2)cc1CO [AZD8055]	negligible effect on the activity of isomer 1a	–
CO[C@H]1C[C@@H]2CC[C@@H](C)[C@@](O)(O2)C(=O)C(=O)N2CCCC[C@H]2C(=O)O[C@H]([C@H](C)C[C@@H]2CC[C@@H](O)[C@H](OC)C2)CC(=O)[C@H](C)/C=C(\C)[C@@H](O)[C@@H](OC)C(=O)[C@H](C)C[C@H](C)/C=C/C=C/C=C/1C [Rapamycin]	–	antagonizes isomer 1a inhibition of hENT1-mediated thymidine uptake
